Reference: PubChem BioAssay (NCI)
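Growth conditions: 96-well plates. Treatment: test compound, 48 hours, 5 concentrations. Analysis: linear interpolation between bracketing concentrations; unreached endpoints set to highest concentration. The concentration for 50% growth inhibition is given as GI50. TGI is the concentration that stops growth completely.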

What was measured:
Assay in all cases: NCI tumour cell line growth inhibition, 48 h
SK-OV-3 ovarian = system: SK-OV-3 ovarian
MALME-3M melanoma = system: MALME-3M melanoma
TK-10 renal = system: TK-10 renal
HCT-116 colon = system: HCT-116 colon
SW-620 colon = system: SW-620 colon
NCI-H460 lung = system: NCI-H460 lung
U251 CNS = system: U251 CNS
M14 melanoma = system: M14 melanoma
MDA-MB-435 = system: MDA-MB-435
CCRF-CEM leukemia = system: CCRF-CEM leukemia

SMILES	TGI (SK-OV-3 ovarian) [µM]	TGI (MALME-3M melanoma) [µM]	TGI (TK-10 renal) [µM]	TGI (HCT-116 colon) [µM]	TGI (SW-620 colon) [µM]	TGI (NCI-H460 lung) [µM]	TGI (U251 CNS) [µM]	TGI (M14 melanoma) [µM]	TGI (MDA-MB-435) [µM]	GI50 (TK-10 renal) [nM]	GI50 (HCT-116 colon) [µM]	GI50 (SW-620 colon) [nM]	GI50 (NCI-H460 lung) [µM]	GI50 (U251 CNS) [µM]	GI50 (M14 melanoma) [µM]	GI50 (MDA-MB-435) [µM]	GI50 (SK-OV-3 ovarian) [µM]	GI50 (MALME-3M melanoma) [nM]	GI50 (CCRF-CEM leukemia) [nM]	TGI (CCRF-CEM leukemia) [µM]
O=C1c2ccccc2C(=O)c2c1ccc(C1C(=O)c3ccccc3C1=O)c2-c1c(C2C(=O)c3ccccc3C2=O)ccc2c1C(=O)c1ccccc1C2=O	> 100	> 100	> 100	> 100	> 100	> 100	> 100	> 100	> 100	–	–	–	–	–	–	–	–	–	–	–
c1cc(CNCCN2CCNCC2)ccn1	> 100	> 100	86.7	> 100	> 100	> 100	> 100	> 100	> 100	–	–	–	–	–	–	–	–	–	–	–
C=C1CCC2C(C)(C)CCC[C@]2(C)[C@H]1CO (some centres undefined)	–	–	> 100	> 100	> 100	> 100	> 100	> 100	> 100	> 100000	30.4	> 100000	59.8	49	71.8	43.2	–	–	–	–
COC(=O)CCCC(=O)O	–	> 100	> 100	> 100	> 100	> 100	> 100	> 100	> 100	–	–	–	–	–	–	–	–	–	–	–
COc1ccc(Nc2c3ccccc3nc3ccccc23)cc1	16.2	9.05	13.7	11.5	14.4	6.2	14.1	13.6	–	2780	0.576	599	0.479	2.55	0.735	–	3.66	1830	1170	10.7
CC1C[C@@H]2C(=O)NC(=O)[C@@H]2c2c1c1ccccc1n2C (some centres undefined)	> 100	> 100	> 100	–	> 100	> 100	> 100	> 100	–	–	–	–	–	–	–	–	–	–	–	> 100
COCCCNC(=O)CC(=O)NCCCOC	–	> 100	> 100	> 100	> 100	> 100	> 100	> 100	–	–	–	–	–	–	–	–	–	–	–	> 100
CCC(=O)c1c(NOC2OC(COC(C)=O)C(OC(C)=O)C(OC(C)=O)C2OC(C)=O)nc(OC)n(C)c1=O (centres undefined)	–	–	> 100	> 100	> 100	> 100	> 100	> 100	–	–	–	–	–	–	–	–	–	–	–	> 100
COc1cc(OC)c(C2CC=Cc3c(OC)cc(OC)c(OC)c32)cc1OC (centres undefined)	> 100	> 100	> 100	> 100	> 100	> 100	> 100	> 100	–	–	–	–	–	–	–	–	–	–	–	> 100
CCCCS(=O)(=O)CCC(N)C(=O)O (centres undefined)	> 100	> 100	> 100	> 100	> 100	> 100	> 100	> 100	–	–	–	–	–	–	–	–	–	–	–	> 100
